The source of these data is publication PMC9852552, “Emission of floral volatiles is facilitated by cell-wall non-specific lipid transfer proteins” (Nature Communications, 2023).

SMILES strings stand for the structures. Values joined by “and” are separate entries in the source; they are usually repeats but may differ in a detail not shown here. Identical values can stand only once.

The target in one assay is recombinant PhnsLTP3. Put plainly: TNS displacement assay with recombinant PhnsLTP3. Particulars: PhnsLTP3 1 µM, TNS 3 µM; for Kd: non-linear fitting to Michaelis-Menten equation (one binding site), means ± S.E., n = 3, read-out: dissociation constant Kd (PhnsLTP3); for Percentage fluorescence quenched: three biological replicates (c2-c4). Format: binding, Petunia hybrida. On the procedure: (§1) To directly test whether PhnsLTP3 can bind petunia VOCs, in vitro displacement assays were performed using the recombinant PhnsLTP3 protein and fluorescent 6-(p-toluidino)−2-naphthalenesulfonate (TNS) in the presence of petunia volatiles. […] TNS fluoresces strongly when bound to the hydrophobic regions of the protein, while it has weak fluorescence in an aqueous solution. […] Potential ligands of the protein will displace the bound TNS from the hydrophobic protein pocket into the aqueous environment leading to a decrease in the fluorescent signal, which was used to calculate the dissociation constant of the protein with ligand. […] To test whether PhnsLTP2 and PhnsLTP3 can bind other VOCs, we assayed the terpenoids: limonene, linalool, and nerolidol, as well as methyl jasmonate in TNS displacement assays. Both PhnsLTP2 and PhnsLTP3 were able to bind tested volatile compounds with Kds in the micromolar range (Supplementary Figs. 16 and 17).
Fig. 5 Binding kinetics of recombinant PhnsLTP3 with VOCs emitted by petunia flowers. TNS displacement assays were performed at fixed concentrations of PhnsLTP3 (1 µM) and TNS (3 µM) and the fluorescence was measured before and after the tested compounds were added at various concentrations. The results are expressed as percentage of fluorescence quenched with respect to the concentration of added compound. The binding curves were obtained by non-linear fitting to the Michaelis-Menten equation (solid line in the graph) and the dissociation constants Kd [µM] were obtained. […] All data are means ± S.E. (n = 3 biological replicates).
(§2) The fluorescence-based-binding assays were performed largely according to previous publications[12],[52] with slight modifications. […] All mixtures were excited at 320 nm, and the fluorescence emission at 437 nm was recorded using a plate reader (SpectraMax iD3, Molecular Devices) at equilibrium after 5 min of incubation at 25 °C giving the background fluorescence Fmix0 and FTNS0 . The tested ligands dissolved in 2 µL DMSO were then added to the mixtures and TNS only to different final concentrations, and the fluorescence emissions were recorded at equilibrium after 5 min of incubation ( Fmixligand and FTNSligand ). To account for the change in the TNS fluorescence intensity upon adding the solvent DMSO, the background fluorescence of TNS ( FTNSsol ) as well as each PhnsLTP with TNS ( Fmixsol ) were measured. The ratios RTNS=FTNSsol/FTNS0 and Rmix=Fmixsol/Fmix0 were calculated to calibrate the fluorescence. Three measurements were taken for each concentration. The results were expressed as a percentage of fluorescence quenched Fmixligand/Rmix−FTNSligand/RTNS/Fmix0−FTNS0×100% . The corresponding dissociation constants kd were obtained by non-linear regression fitting of the binding kinetics to the Michaelis-Menten equation.
The binding curves of PhnsLTP3 with various VOC compounds were obtained by non-linear fitting to the one-binding-site (Eq. (1)) and two-binding-site (Eq. (2)) models. The equations assume that the ligand binds to multiple independent binding sites and that the binding to each site follows the law of mass action:1 %offluorescencequenched=Bmax×[TNS]/kd+[TNS] 2 %offluorescencequenched=Bmax1×[TNS]/kd1+[TNS]+Bmax2×[TNS]/kd2+[TNS] […]
PhnsL TP3 (1 µ M)and TNS (3 µ M)and the fluorescence was measured before and after the tested compounds were added at various concentrations. The results are expressed as percentage of fluorescence quenched with respect to the concentration of added compound.
The binding curves were obtained by non-linear fitting to the Michaelis-Menten equation (solid line in the graph) and the dissociation constants Kd [µ M]were obtained. All data are means ±S.E. (n = 3 biological replicates).
Supplementary Figure 25 | Analysis of number of binding sites of PhnsLTP3.
TNS displacement assay was performed at fixed concentrations of PhnsLTP3 (1 µM) and TNS (3 µM) and the fluorescence was measured before and after methyl […]

A further assay addresses recombinant PhnsLTP2. Kind of assay: TNS displacement assay with recombinant PhnsLTP2. Format: binding, Petunia hybrida. Particulars: PhnsLTP2 1 µM, TNS 3 µM; non-linear fitting to Michaelis-Menten equation; means ± S.E., n = 3; read-out: dissociation constant Kd (PhnsLTP2). On the procedure: as §1, §2
Supplementary Figure 16 | Binding kinetics of recombinant PhnsLTP2 with phenylpropanoids/benzenoids by petunia flowers, terpenoids and methyl jasmonate.
TNS displacement assays were performed at fixed concentrations of PhnsLTP2 (1 µM) and TNS (3 µM) and the fluorescence was measured before and after the tested compounds were added at various concentrations. The results are expressed as percentage of fluorescence quenched with respect to the concentration of added compound. The binding curves were obtained by non-linear fitting to the Michaelis-Menten equation (solid line in the graph) and the dissociation constants Kd [µM] were obtained. Phenylacetaldehyde, eugenol, and […]
corresponding binding curves. All data are means ±S.E. (n = 3 biological replicates).

The test system of a further assay is petunia flowers. Kind of assay: Phenylalanine feeding: total VOC emission and total pools. Particulars: for Total pools / Total emission: biological replicates 1-3; for absolute increase over 2 h in VOC emission rate upon Phe feeding: 150 mM Phe, 19:00 to 22:00 h. Format: in vivo, Petunia hybrida. The source says: Such reduction in VOC emission could be the result of diminished VOC transport across the cell wall, decreased VOC biosynthesis or both. […] Recently, we have shown that the VOC redistribution and reduction of their levels in the cuticle decrease their release from the cell and reduce carbon flux to Phe, which is the precursor for petunia VOCs[8]. […] Thus, to distinguish between the contribution of VOC transport and Phe limitation in VOC biosynthesis, control and PhnsLTP3-RNAi-R5 flowers were fed with Phe, and total VOC emission and total pools were measured from 19:00 to 22:00 h (Supplementary Fig. 20).
Floral volatile emission was analyzed by dynamic headspace collection of volatiles at 25 °C on columns containing 20 mg Porapak Q (80–100 mesh) (Sigma-Aldrich) and analyzed on an Agilent 6890N-5975B GC–MS system as described previously[7],[8],[43] with minor modifications. Briefly, emitted volatiles were collected from detached transgenic and wild-type flowers from 19:00 to 22:00 h on day 2 postanthesis. Adsorbed volatiles were eluted from collection columns with 280 μL dichloromethane containing 52 nmol of naphthalene as the internal standard. For analysis of total petal pools, 0.5 g of petal tissue from transgenic and control plants was collected at 22:00 h on day 2 postanthesis, ground to a fine powder in liquid nitrogen, and total petal pools were extracted in 5 mL of dichloromethane containing 52 nmol of internal standard (naphthalene) for 12 h at −20 °C. Samples were then warmed up, vortexed and concentrated to 200 μL under a stream of nitrogen gas before injection into GC–MS (Agilent 6890N-5975B). All GC–MS data were collected and analyzed using Agilent MSD ChemStation F.01.03.2357 software. For phenylalanine feeding, flowers from wild type and PhnsLTP3-RNAi were harvested and placed in 150 mM of phenylalanine solution. Emitted volatiles and their total petal pools were sampled every hour from 16:00 till 19:00 h and from 19:00 till 22:00 h and analyzed as described above.
Supplementary Figure 20 | Total VOC emission and their total pools in control and PhnsLTP3-RNAi petunia flowers fed with 150 mM Phe. Total VOC emission (a) and total pools (b) in wild-type (WT) and PhnsLTP3-RNAi-R5 line fed with 150 mM Phe from 19:00 to 22:00 h. Data are means ± S.E. (n = 3 biological replicates). […]
determined by two-way ANOV Awith P = 0.0086. […]

Turning to `C=CC(C)(O)CCC=C(C)C` (stereo not shown) [Linalool], the dissociation constant Kd on recombinant PhnsLTP3 is 299 ± 52.4 µM; on recombinant PhnsLTP2, 501 ± 35.8 µM.

`OCc1ccccc1` [Benzyl alcohol]: the figures for the Kd on recombinant PhnsLTP3 and on recombinant PhnsLTP2 were 208 ± 74.2 µM and 399 ± 261 µM, respectively. The Percentage fluorescence quenched was 3.06% and 3.64% and 9.84% with recombinant PhnsLTP3 (VOC concentration 30 µM); 23.75% and 24.96% and 17.77% with recombinant PhnsLTP3 (VOC concentration 300 µM); 32.13% and 29.61% and 29.01% in the assay with recombinant PhnsLTP3 (VOC concentration 1500 µM); 34.41% and 38.89% and 34.26% in the assay with recombinant PhnsLTP3 (VOC concentration 3000 µM).

As to `C=C(C)[C@H]1CC=C(C)CC1` [Limonene], the Kd was found to be 26.7 ± 14.2 µM at recombinant PhnsLTP3 and 126 ± 43.6 µM on recombinant PhnsLTP2.

With `OCCc1ccccc1` [2-Phenylethanol], the Kd on recombinant PhnsLTP3 came out at 395 ± 131 µM. Further, the Percentage fluorescence quenched is 8.20% and 0.13% and 7.39% in the assay on recombinant PhnsLTP3 (VOC concentration 3 µM); 14.26% and 5.61% and 8.61% in the assay on recombinant PhnsLTP3 (VOC concentration 30 µM); 15.48% and 18.99% and 19.97% with recombinant PhnsLTP3 (VOC concentration 300 µM); 39.03% and 34.28% and 33.24% in the assay with recombinant PhnsLTP3 (VOC concentration 1500 µM); 41.03% and 32.70% and 40.07% with recombinant PhnsLTP3 (VOC concentration 3000 µM).

For `COc1cc(C=O)ccc1O` [Vanillin], the results for the Kd at recombinant PhnsLTP3 and on recombinant PhnsLTP2 were 26.3 ± 10.4 µM and 114 ± 12.9 µM, respectively. Besides, the Percentage fluorescence quenched in the assay with recombinant PhnsLTP3 (VOC concentration 3 µM) was 5.78% and 5.07% and 1.21%; in the assay with recombinant PhnsLTP3 (VOC concentration 30 µM) it was 6.62% and 14.22% and 7.63%; in the assay with recombinant PhnsLTP3 (VOC concentration 300 µM), 35.76% and 34.45% and 15.77%; in the assay on recombinant PhnsLTP3 (VOC concentration 1500 µM), 17.05% and 24.17% and 26.21%; in the assay on recombinant PhnsLTP3 (VOC concentration 3000 µM), 22.96% and 20.23% and 21.72%.

Regarding `O=Cc1ccccc1` [Benzaldehyde], the Kd at recombinant PhnsLTP3 was 276 ± 59.8 µM; on recombinant PhnsLTP2, 344 ± 80.7 µM. Also, the Percentage fluorescence quenched is 3.47% and 6.56% and 12.79% in the assay on recombinant PhnsLTP3 (VOC concentration 3 µM); 19.94% and 11.97% and 16.71% with recombinant PhnsLTP3 (VOC concentration 30 µM); 45.75% and 56.38% and 51.72% in the assay on recombinant PhnsLTP3 (VOC concentration 300 µM); 74.25% and 79.55% and 80.00% in the assay on recombinant PhnsLTP3 (VOC concentration 1500 µM); 86.84% and 86.38% and 86.21% in the assay on recombinant PhnsLTP3 (VOC concentration 3000 µM).

In the case of `N[C@@H](Cc1ccccc1)C(=O)O` [Phe, L-phenylalanine], the Total pools was 440.17 nmol g FW-1 and 381.25 nmol g FW-1 and 288.77 nmol g FW-1 in the assay on petunia flowers (PhLTP3-RNAi-5 + Phe, 19:00 h); 756.94 nmol g FW-1 and 1050.75 nmol g FW-1 and 883.29 nmol g FW-1 in the assay with petunia flowers (PhLTP3-RNAi-5 + Phe, 20:00 h); 1249.12 nmol g FW-1 and 1300.32 nmol g FW-1 and 829.02 nmol g FW-1 with petunia flowers (PhLTP3-RNAi-5 + Phe, 21:00 h); 913.29 nmol g FW-1 and 1187.03 nmol g FW-1 and 1389.76 nmol g FW-1 with petunia flowers (PhLTP3-RNAi-5 + Phe, 22:00 h); 363.34 nmol g FW-1 and 564.43 nmol g FW-1 and 340.47 nmol g FW-1 in the assay on petunia flowers (WT + Phe, 19:00 h); 885.56 nmol g FW-1 and 1126.01 nmol g FW-1 and 1295.32 nmol g FW-1 with petunia flowers (WT + Phe, 20:00 h). Besides, the Total pools in the assay with petunia flowers (WT + Phe, 21:00 h) was 1190.78 nmol g FW-1 and 1426.22 nmol g FW-1 and 956.14 nmol g FW-1; with petunia flowers (WT + Phe, 22:00 h) it was 1455.77 nmol g FW-1 and 972.77 nmol g FW-1 and 1086.37 nmol g FW-1. In addition, the Total emission with petunia flowers (PhLTP3-RNAi-5 + Phe, 20:00 h) was 837.22 nmol g FW-1 h-1 and 1059.64 nmol g FW-1 h-1 and 828.44 nmol g FW-1 h-1; in the assay with petunia flowers (PhLTP3-RNAi-5 + Phe, 21:00 h), 2356.48 nmol g FW-1 h-1 and 1887.30 nmol g FW-1 h-1 and 1311.64 nmol g FW-1 h-1; in the assay with petunia flowers (PhLTP3-RNAi-5 + Phe, 22:00 h), 2845.33 nmol g FW-1 h-1 and 2241.14 nmol g FW-1 h-1 and 2347.25 nmol g FW-1 h-1; in the assay with petunia flowers (WT + Phe, 20:00 h), 1481.84 nmol g FW-1 h-1 and 2333.99 nmol g FW-1 h-1 and 1404.14 nmol g FW-1 h-1; in the assay on petunia flowers (WT + Phe, 21:00 h), 1814.62 nmol g FW-1 h-1 and 2602.15 nmol g FW-1 h-1 and 2554.66 nmol g FW-1 h-1; with petunia flowers (WT + Phe, 22:00 h), 3087.41 nmol g FW-1 h-1 and 2626.99 nmol g FW-1 h-1 and 3838.92 nmol g FW-1 h-1. Moreover, the “absolute increase over 2 h in VOC emission rate upon Phe feeding” value in the assay on petunia flowers (PhnsLTP3-RNAi-R5 flowers) is 1569 ± 76 nmol g FW^−1; in the assay with petunia flowers (wild-type flowers) it was 1444 ± 298 nmol g FW^−1.

The Kd is a measure of binding affinity in units of concentration.
